The values below come from patent publication US11351206B2, “Probiotic sports nutrition compositions” (Ganeden Biotech, Inc., priority 2011, dated 2022).

Structures are written as SMILES.

The assay concerns various bacterial pathogens. Description: Zone of inhibition assay, positive control. The format is cell-based. The settings on record: 1 μl volume. The text has this:
The probiotic organisms described herein, e.g., Bacillus coagulans strain GBI-30 or GANEDEN BC-30™, ATCC Designation Number PTA-6086, promote digestive and oral health and support the immune system. The ability of Bacillus coagulans to inhibit various bacterial pathogens was quantitatively ascertained by use of an in vitro assay. This assay is part of a standardized bacterial pathogen screen (developed by the U.S. Food and Drug Administration (FDA)) and is commercially available on solid support disks (DIFCO® BACTROL® Antibiotic Disks). To perform the assay, potato-dextrose plates)(DIFCO® were initially prepared using standard procedures. The plates were then individually inoculated with the bacteria (approximately 1.5×10^6 CFU) to be tested so as to form a confluent bacterial bed.
Inhibition of microorganisms (e.g. gastrointestinal pathogens) by Bacillus coagulans was subsequently ascertained by placing approximately 1.8×10^6 CFU of Bacillus coagulans in 10 μl of broth or buffer, directly in the center of the potato-dextrose plate with one test locus being approximately 8 mm in diameter per plate. A minimum of three test loci were used for each assay. […] The plates were then incubated for approximately about 18 hr at 30° C., at which time the zones of inhibition were measured. […]

For `O=CCCCC=O` [glutaraldehyde], the inhibition entry (about 18 hr at 30° C.) is listed as “excellent “inhibition””. For the same compound, the “zone of inhibition diameter” value (average of three tests) is “approximately 16.2 mm”.
